Data on 19 compounds can be found in patent US8569511B2, “Substituted 3-(1H-benzo[d]imidazol-2-yl)-1H-indazole analogs as inhibitors of the PDK1 kinase” (University of Utah Research Foundation, priority 2011, dated 2013).

As usually defined, the IC50 is the point on the concentration scale where inhibition reaches its midpoint. One may read the pIC50 as the IC50 on a negative log10 scale, so that one unit is a factor of ten.

Experiment [1] concerns the target T1, PDK1 (Homo sapiens (Human), UniProt O15530). The experiment in a line: PDK1 ATP Depletion Kinase Assay (Kinase-Glo luminescence). The format is biochemical. The conditions noted are these: PDKtide substrate, read-out: PDK1 Kinase assays (IC50, μM) Activity Assay. The method, then: Test compounds were diluted to desired concentrations in kinase reaction buffer and briefly incubated with human recombinant PDK1 kinase which is histidine-tagged (Invitrogen Corporation, Carlsbad, Calif.). The reaction was subsequently initiated by the addition of ATP and PDKtide substrate (Millipore Corporation, Billerica, Massachussetts). […] After an incubation of 60 minutes at room temperature, 10 μl of the Kinase-Glo reagent (Promega Corporation, Madison, Wis.) was added to each well and incubated for an additional 10 minutes. Luminescence was measured on an EnVision microplate reader (PerkinElmer). The amount of luminescence from each reaction is inversely correlated with PDK1 kinase activity. Percent inhibition and IC50 values can be calculated by comparing enzyme activity in drug-treated wells to the appropriate controls, e.g. vehicle control.
(§1) IC50 values are determined using GraphPad Prism 5 software. The data were entered as an X-Y plot into the software as percent inhibition for each concentration of the drug. The concentration values of the drug were log transformed and the nonlinear regression was carried out using the “sigmoidal dose-response (variable slope)” option within the GraphPad software to model the data and calculate IC50 values.
(In general: Kinase-Glo measures the ATP left after a reaction by luminescence.)

Experiment [2] concerns the target T1, PDK1. In words: Time resolved-FRET LanthaScreen Kinase Binding Assay. As to conditions: TR-FRET Lanthascreen Kinase Binding Assay; read-out: PDK1 Kinase assays (IC50, μM) Binding Assay.
Source text: Binding of the tracer to the kinase is detected using a europium-labeled anti-tag antibody, which binds to the kinase of interest. […] Binding of an inhibitor to the kinase competes for binding with the tracer, resulting in a loss of FRET.
Activity of compounds was routinely assessed using a secondary assay as described herein. The secondary assay was a time resolved-FRET LanthaScreen Kinase Binding Assay (Invitrogen Corporation, Carlsbad, Calif.). This assay evaluates the ability of the test compound to compete with a fluorescently-labeled tracer molecule to bind in the ATP pocket of a kinase. The assay signal is generated when a Europium-conjugated anti-His tag antibody (Invitrogen) bound to the His-tagged kinase produces a TR-FRET signal with the tracer molecule bound in the ATP pocket of the kinase. […] After 60 minutes of incubation at room temperature, the TR-FRET signal was measured on an EnVision microplate reader.
as §1
For orientation: Time-resolved FRET reads energy transfer from a long-lived donor to a nearby acceptor.

In experiment [3] the target is T1, PDK1. In words: PDK1 fluorometric activity assay performed by Life Technologies. The format is biochemical. The conditions noted are these: fluorometric assay performed by Life Technologies (Table IV); read-out: PDK1 Kinase assays (IC50). The method, then:
PDK1 biochemical activity was measured by a fluorometric assay performed by Life Technologies (Grand Island, N.Y.). The assay conditions for PDK1 are as follows. The 2×PDK1/Ser/Thr-07 mixture is prepared in 50 mM Tris pH 8.5, 0.01% BRIJ-35, 10 mM MgCl2, 1 mM EGTA, 0.02% NaN3.
The kinase specificity was measured using fluorometric assays performed by Life Technologies (Grand Island, N.Y.). Assay conditions vary for each kinase and are available from Life Technologies, Grand Island, NY. For example, the assay conditions for PDK1 are as follows. The 2×PDK1/Ser/Thr-07 mixture is prepared in 50 mM Tris pH 8.5, 0.01% BRIJ-35, 10 mM MgCl2, 1 mM EGTA, 0.02% NaN3.

Another experiment deals with AN3-CA cells. The experiment in a line: Cell viability assay (ATP-lite). The format is cell-based. As to conditions: Homo sapiens; AN3-CA (PTEN and PIK3R1 mutations); read-out: Cell Viability IC50 AN3-CA. As to the method: (§2) AN3-CA (PTEN-deficient), RL95-2 (PTEN-deficient), and HEC-1A (PTEN-wild type) cells were plated in 45 μl of RPMI-1640 media supplemented with 10% FBS and 1% Pen/Strep at a density of 1000 cells per well in white 384-well plates. Cells were allowed to attach by incubation overnight at 37° C. and 5% CO2. Test compounds were diluted to 10× concentrations in RPMI-1640 media (containing 3% DMSO) and 5 μl 1 of these dilutions were added in triplicate to the appropriate wells containing the cells. The plates containing the drug-treated cells and appropriate controls were incubated for 96 hours. At the end of the incubation, 40 μl of ATP-lite (PerkinElmer, Inc., Waltham, Massachussetts) reagent were added to each well and luminescence signal was measured on an EnVision microplate reader.
Alternatively, AN3-CA, RL95-2, HEC-1A endometrial cancer cell lines were plated at a density of 2000 cells per well in a 96 well culture plate in 45 μl of cell culture media and incubated overnight. The following day, test compounds were added to the cells in 5 μl of serum-free media to generate final concentrations of 10, 3, 1, 0.3, 0.1, 0.03, 0.01, or 0.003 μM. Vehicle treated controls were also included and each condition was applied in quadruplicate. Following 96 hours of incubation, 35 μL of ATP-lite (PerkinElmer) reagent was added each well and allowed to react for 10 minutes. Plate was read on a Envision 2104 MultiLabel reader (PerkinElmer).
as §1

The subject of the next experiment is HEC-1A cells. The experiment in a line: Cell viability assay (ATP-lite). The format is cell-based. As to conditions: Homo sapiens; HEC-1A (PTEN-wild type); read-out: Cell Viability IC50 HEC-1A. As to the method: as §2
(§3) Alternatively, AN3-CA, RL95-2, HEC-1A endometrial cancer cell lines were plated at a density of 2000 cells per well in a 96 well culture plate in 45 μl of cell culture media and incubated overnight. […] Vehicle treated controls were also included and each condition was applied in quadruplicate. Following 96 hours of incubation, 35 μL of ATP-lite (PerkinElmer) reagent was added each well and allowed to react for 10 minutes. Plate was read on a Envision 2104 MultiLabel reader (PerkinElmer).
as §1

The subject of the next experiment is RL95-2 cells. In words: Cell viability assay (ATP-lite). As to conditions: Homo sapiens; RL95-2 (PTEN mutation); read-out: Cell Viability IC50 RL95-2. The format is cell-based. The method, then: as §2, §3, §1

pIC50: −log10 of the molar value. Some results are limits rather than exact numbers.

T1 sequence (O15530 whole entry): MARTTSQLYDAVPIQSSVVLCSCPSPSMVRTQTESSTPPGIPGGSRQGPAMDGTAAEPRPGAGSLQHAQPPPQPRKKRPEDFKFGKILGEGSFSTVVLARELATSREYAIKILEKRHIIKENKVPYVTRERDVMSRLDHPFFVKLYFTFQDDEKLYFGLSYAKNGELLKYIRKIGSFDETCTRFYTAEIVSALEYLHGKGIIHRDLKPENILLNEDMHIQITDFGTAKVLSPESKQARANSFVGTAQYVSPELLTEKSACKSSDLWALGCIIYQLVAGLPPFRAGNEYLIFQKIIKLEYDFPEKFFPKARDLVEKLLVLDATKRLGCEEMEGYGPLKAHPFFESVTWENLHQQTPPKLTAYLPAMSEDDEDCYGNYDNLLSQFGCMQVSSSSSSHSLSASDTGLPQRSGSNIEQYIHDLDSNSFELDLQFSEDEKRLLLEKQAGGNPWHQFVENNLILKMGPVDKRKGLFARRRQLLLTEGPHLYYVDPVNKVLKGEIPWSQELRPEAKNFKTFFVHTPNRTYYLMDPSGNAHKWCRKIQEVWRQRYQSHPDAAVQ

With `O=C(Nc1ccc2[nH]nc(-c3nc4cc(N5CCOCC5)ccc4[nH]3)c2c1)C1CC1` [Compound 3], the IC50 on PDK1 [1] was 0.283 µM; on PDK1 [2], 0.229 µM. For the same compound, the pIC50 at PDK1 [3] was 6.64.
On the same counts, the results for `O=C(Nc1ccc2[nH]nc(-c3nc4cc(N5CCOCC5)ccc4[nH]3)c2c1)C1CCC(F)(F)CC1` [Compound 4] are 0.304 µM, 0.265 µM and 6.58.
For `CC1CCN(c2ccc3[nH]c(-c4n[nH]c5ccc(NC(=O)C6CC6(F)F)cc45)nc3c2)CC1` (centres unmarked) [Compound 5], at PDK1 [1], the IC50 amounted to 0.78 µM. On PDK1 [3], the pIC50 was 6.11.
In the case of `O=C(Nc1ccc2[nH]nc(-c3nc4ccccc4[nH]3)c2c1)C1CCC(F)(F)CC1` [Compound 6], the IC50 was 1.5 µM on PDK1 [1] and 0.41 µM at PDK1 [2]. The pIC50 is 6.39 on PDK1 [3], 5.68 with AN3-CA cells, 5.02 in the experiment on HEC-1A cells and 5.64 in the experiment on RL95-2 cells.
Regarding `O=C(Nc1ccc2[nH]nc(-c3nc4ccccc4[nH]3)c2c1)C1CC1` [Compound 7], the IC50 on PDK1 [1] was 1.74 µM; on PDK1 [2], 1.23 µM. At PDK1 [3], the pIC50 is 5.91.
For the compound `O=C(Nc1ccc2[nH]nc(-c3nc4ccccc4[nH]3)c2c1)C1CC1(F)F` (centres unmarked) [Compound 8], the IC50 worked out at 1.94 µM on PDK1 [1] and 0.28 µM on PDK1 [2]. Besides, the pIC50 at PDK1 [3] was 6.55; in the experiment on AN3-CA cells it was 6.48; with HEC-1A cells, 4.83; in the experiment with RL95-2 cells it was 5.16.
Turning to `O=C(Nc1ccc2[nH]nc(-c3nc4cc(CN5CCOCC5)ccc4[nH]3)c2c1)C1CC1(F)F` (centres unmarked) [Compound 9], the values for the concentration for half-maximal inhibition (IC50) at PDK1 [1] and on PDK1 [2] were 3.75 µM and 1.22 µM, respectively. The pIC50 on PDK1 [3] was 5.91; in the experiment on AN3-CA cells it was 6.35; with HEC-1A cells it was 4.74; with RL95-2 cells, 5.49.
As to `O=C(Nc1cccc2[nH]nc(-c3nc4ccc(N5CCOCC5)cc4[nH]3)c12)C1CC1(F)F` (centres unmarked) [Compound 10], the IC50 stood at 4.4 µM on PDK1 [1] and 0.385 µM at PDK1 [2]. Moreover, the pIC50 at PDK1 [3] is 6.41.
With `Brc1ccc2[nH]nc(-c3nc4ccccc4[nH]3)c2c1` [Compound 11], the IC50 at PDK1 [1] stood at 10.9 µM. In addition, the results for the pIC50 in the experiment on AN3-CA cells, with HEC-1A cells and in the experiment on RL95-2 cells were 4.92, 4.53 and 4.94, respectively.
Take `O=C(Nc1ccc2[nH]nc(-c3nc4ccccc4[nH]3)c2c1)NC1CC1` [Compound 12]: the IC50 is 11.6 µM on PDK1 [1] and 0.92 µM at PDK1 [2]. Further, the pIC50 on PDK1 [3] was 6.04; in the experiment with AN3-CA cells, 4.74; with HEC-1A cells it was 4.90; in the experiment on RL95-2 cells it was 4.77.
As to `O=C(Nc1ccc2[nH]nc(-c3nc4ccccc4[nH]3)c2c1)c1cccc(F)c1` [Compound 13], the IC50 at PDK1 [1] amounted to 21.1 µM; at PDK1 [2], 8.79 µM. In addition, the pIC50 was 5.06 on PDK1 [3], 4.62 in the experiment with AN3-CA cells, 4.29 with HEC-1A cells and 4.82 with RL95-2 cells.
For `CS(=O)(=O)c1cccc(-c2ccc3[nH]nc(-c4nc5ccccc5[nH]4)c3c2)c1` [Compound 14], the values for the IC50 at PDK1 [1] and at PDK1 [2] were 23.7 µM and 15.3 µM, respectively. Further, the pIC50 was 4.82 at PDK1 [3], 5.00 in the experiment on AN3-CA cells, 4.70 with HEC-1A cells and 4.45 in the experiment on RL95-2 cells.
In the case of `FC(F)(F)c1cccc(-c2ccc3[nH]nc(-c4nc5ccccc5[nH]4)c3c2)c1` [Compound 15], the IC50 on PDK1 [1] worked out at 55.7 µM; at PDK1 [2], 30.3 µM. On PDK1 [3], the pIC50 was 4.52.
Turning to `CC(C)(C#N)c1ccc(-c2ccc3[nH]nc(-c4nc5ccccc5[nH]4)c3c2)cc1` [Compound 16], the values for the IC50 on PDK1 [1] and on PDK1 [2] were 58.5 µM and 5.17 µM, respectively. The negative logarithm of the IC50 (pIC50) is 5.28 at PDK1 [3], 4.10 in the experiment with AN3-CA cells, 4.54 in the experiment with HEC-1A cells and 4.82 with RL95-2 cells.
`O=C(Nc1ccc2[nH]nc(-c3nc4ccccc4[nH]3)c2c1)Nc1ccc(F)cc1F` [Compound 17]: the IC50 on PDK1 [1] and at PDK1 [2] was above 100 µM in each case.
As to `CN1CCC(C)(C(=O)Nc2ccc3[nH]nc(-c4nc5ccccc5[nH]4)c3c2)CC1` [Compound 18], at PDK1 [1], the IC50 is above 100 µM. The pIC50 was 4.81 in the experiment on AN3-CA cells, 4.25 in the experiment on HEC-1A cells and 5.20 in the experiment with RL95-2 cells.
For the compound `O=C(Nc1ccc2[nH]nc(-c3nc4ccccc4[nH]3)c2c1)NC1CCCC1` [Compound 19], the IC50 at PDK1 [1] was above 100 µM.
On to `O=C(Nc1ccc2[nH]nc(-c3nc4ccccc4[nH]3)c2c1)C1CCN(c2ccncc2)CC1` [Compound 20], for which the IC50 on PDK1 [1] and on PDK1 [2] was above 100 µM in each case.
Turning to `O=C(Nc1ccc2c(-c3nc4ccc(N5CCOCC5)cc4[nH]3)n[nH]c2c1)C1CC1(F)F` (centres unmarked) [Compound 21], the IC50 at PDK1 [1] and on PDK1 [2] was above 100 µM in each case.
